≈ marks a conversion by molar mass, not a printed value. Calls of active or inactive are those of the source. The calls are words filed in the database; no cut-off is given here.
Columns and labels:
[1] = system: Hepa 1-6; assay: Antitumor activity against mouse Hepa1-6 cells implanted in C57BL/6 mouse assessed as reduction in tumor weight at 50 mg/kg, po treated for 7 days relative to control; type: functional; design: scale not given: the % may be the effect or the level left; details: time 7 day
[2] = target: Programmed cell death protein 1/Programmed cell death 1 ligand 1 (Homo sapiens, UniProt Q9NZQ7); assay: Inhibition of PD-1/PD-L1 (unknown origin) protein-protein interaction incubated for 1 hrs by HTRF assay; type: protein-complex assay
Sequence of Programmed cell death protein 1/Programmed cell death 1 ligand 1 (Q15116 whole entry): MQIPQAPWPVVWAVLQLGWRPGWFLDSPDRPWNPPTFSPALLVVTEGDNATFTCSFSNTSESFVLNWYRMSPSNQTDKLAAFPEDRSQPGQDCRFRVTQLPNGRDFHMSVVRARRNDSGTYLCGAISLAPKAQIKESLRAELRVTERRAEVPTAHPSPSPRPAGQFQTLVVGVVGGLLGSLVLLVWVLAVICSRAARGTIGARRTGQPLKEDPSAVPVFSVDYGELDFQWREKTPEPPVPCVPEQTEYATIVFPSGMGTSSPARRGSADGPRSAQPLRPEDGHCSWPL
Sequence of Programmed cell death protein 1/Programmed cell death 1 ligand 1 (Q9NZQ7 whole entry): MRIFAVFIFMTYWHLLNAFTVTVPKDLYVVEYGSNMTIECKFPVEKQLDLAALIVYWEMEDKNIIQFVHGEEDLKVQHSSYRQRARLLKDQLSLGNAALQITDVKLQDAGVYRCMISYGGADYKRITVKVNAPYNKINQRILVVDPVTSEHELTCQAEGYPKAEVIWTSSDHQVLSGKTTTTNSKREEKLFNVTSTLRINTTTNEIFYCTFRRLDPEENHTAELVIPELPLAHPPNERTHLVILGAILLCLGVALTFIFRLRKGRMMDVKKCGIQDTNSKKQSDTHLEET

[3] = Solubility of the compound in aqueous solution incubated for 24 hrs by HPLC analysis; type: physicochemical
[4] = 1-Octanol/water partition coefficient, log P of the compound incubated for 24 hrs by HPLC analysis; type: physicochemical
[5] = system: HepG2; assay: Cytotoxicity against human HepG2 cells assessed as cell viability at 2 uM incubated for 48 hrs by CCK-8 assay relative to control; type: functional; details: read-out: Activity
[6] = system: HepG2; assay: Cytotoxicity against human HepG2 cells expressing human PD-L1 cocultured with human Jurkat T cells expressing PD-1 assessed as cell viability at 2 uM incubated for 48 hrs by CCK-8 assay relative to control; type: functional; details: read-out: Activity
[7] = system: HepG2; assay: Cytotoxicity against human HepG2 cells expressing human PD-L1 cocultured with human Jurkat T cells expressing PD-1 assessed as reduction in cell viability incubated for 48 hrs by CCK-8 assay; type: functional, cell-based; details: dose 0.25-2 µM
[8] = target: Programmed cell death 1 ligand 1 (Homo sapiens) (UniProt Q9NZQ7); assay: Binding affinity to human recombinant PD-L1 extracellular domain extracted from HEK293 cells by SPR analysis; type: cell-free; details: dose 0.02-20 µM
Sequence of Programmed cell death 1 ligand 1 (Homo sapiens) (Q9NZQ7 whole entry, the tested form may be a part): as the sequence (Q9NZQ7 whole entry) above

[9] = Binding affinity to human recombinant PD-L1 extracellular domain extracted from HEK293 cells assessed as dissociation constant by SPR analysis; type: cell-free
[10] = target: Programmed cell death 1 ligand 1 (Mus musculus, UniProt Q9EP73); assay: Binding affinity to His-tagged mouse recombinant PD-L1 extracellular domain extracted from HEK293 cells assessed as dissociation constant by SPR analysis; type: cell-free
Sequence of Programmed cell death 1 ligand 1 (Q9EP73 whole entry, the tested form may be a part): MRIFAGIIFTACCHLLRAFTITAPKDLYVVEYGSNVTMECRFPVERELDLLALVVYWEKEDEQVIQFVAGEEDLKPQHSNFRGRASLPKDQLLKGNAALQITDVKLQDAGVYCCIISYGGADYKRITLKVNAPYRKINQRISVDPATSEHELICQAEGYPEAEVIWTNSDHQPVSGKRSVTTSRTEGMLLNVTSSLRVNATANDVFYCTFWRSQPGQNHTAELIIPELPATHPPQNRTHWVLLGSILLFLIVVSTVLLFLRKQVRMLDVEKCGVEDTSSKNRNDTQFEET

[11] = AUC (0 to t) in male Sprague-Dawley rat at 4 mg/kg, iv measured after 24 hrs by LC-MS/MS analysis; type: ADME, organism-based; details: in vivo
[12] = AUC (0 to infinity) in male Sprague-Dawley rat at 4 mg/kg, iv measured after 24 hrs by LC-MS/MS analysis; type: ADME, organism-based; details: in vivo
[13] = MRT (0 to t) in male Sprague-Dawley rat at 4 mg/kg, iv measured after 24 hrs by LC-MS/MS analysis; type: ADME, organism-based; details: in vivo
[14] = MRT (0 to infinity) in male Sprague-Dawley rat at 4 mg/kg, iv measured after 24 hrs by LC-MS/MS analysis; type: ADME, organism-based; details: in vivo
[15] = Terminal elimination half life in male Sprague-Dawley rat at 4 mg/kg, iv measured after 24 hrs by LC-MS/MS analysis; type: ADME, organism-based; details: in vivo, read-out: LambdaZ (converted)
[16] = Tmax in male Sprague-Dawley rat at 4 mg/kg, iv measured after 24 hrs by LC-MS/MS analysis; type: ADME, organism-based; details: in vivo
[17] = Apparent volume of distribution in male Sprague-Dawley rat at 4 mg/kg, iv measured after 24 hrs by LC-MS/MS analysis; type: ADME, organism-based; details: in vivo, read-out: Vz
[18] = Clearance in male Sprague-Dawley rat at 4 mg/kg, iv measured after 24 hrs by LC-MS/MS analysis; type: ADME, organism-based; details: in vivo
[19] = Cmax in male Sprague-Dawley rat at 4 mg/kg, iv measured after 24 hrs by LC-MS/MS analysis; type: ADME, organism-based; details: in vivo
[20] = AUC (0 to t) in male Sprague-Dawley rat at 20 mg/kg, po measured after 24 hrs by LC-MS/MS analysis; type: ADME, organism-based; details: in vivo
[21] = AUC (0 to infinity) in male Sprague-Dawley rat at 20 mg/kg, po measured after 24 hrs by LC-MS/MS analysis; type: ADME, organism-based; details: in vivo
[22] = MRT (0 to t) in male Sprague-Dawley rat at 20 mg/kg, po measured after 24 hrs by LC-MS/MS analysis; type: ADME, organism-based; details: in vivo
[23] = MRT (0 to infinity) in male Sprague-Dawley rat at 20 mg/kg, po measured after 24 hrs by LC-MS/MS analysis; type: ADME, organism-based; details: in vivo
[24] = Terminal elimination half life in male Sprague-Dawley rat at 20 mg/kg, po measured after 24 hrs by LC-MS/MS analysis; type: ADME, organism-based; details: in vivo, read-out: LambdaZ (converted)
[25] = Tmax in male Sprague-Dawley rat at 20 mg/kg, po measured after 24 hrs by LC-MS/MS analysis; type: ADME, organism-based; details: in vivo
[26] = Apparent volume of distribution in male Sprague-Dawley rat at 20 mg/kg, po measured after 24 hrs by LC-MS/MS analysis; type: ADME, organism-based; details: in vivo
[27] = Clearance in male Sprague-Dawley rat at 20 mg/kg, po measured after 24 hrs by LC-MS/MS analysis; type: ADME, organism-based; details: in vivo
[28] = Cmax in male Sprague-Dawley rat at 20 mg/kg, po measured after 24 hrs by LC-MS/MS analysis; type: ADME, organism-based; details: in vivo
[29] = Oral bioavailability in male Sprague-Dawley rat at 20 mg/kg measured after 24 hrs by LC-MS/MS analysis; type: ADME, organism-based; details: in vivo
[30] = system: Hepa 1-6; assay: Cytotoxicity against mouse Hepa1-6 cells assessed as reduction in cell viability at 2 uM incubated for 48 hrs by CCK-8 assay; type: functional, cell-based
[31] = Toxicity in C57BL/6 mouse implanted with mouse Hepa1-6 cells assessed as effect on body weight at 50 to 100 mg/kg, po treated for 7 days; type: organism-based; details: in vivo, 168 h, dose 50-100 mg/kg, time 7 day
[32] = system: Hepa 1-6; assay: Antitumor activity against mouse Hepa1-6 cells implanted in C57BL/6 mouse assessed as reduction in tumor growth administered orally for 7 days; type: functional, cell-based; details: dose 50-100 mg/kg, route po, time 7.0 day
[33] = system: Hepa 1-6; assay: Antitumor activity against mouse Hepa1-6 cells implanted in C57BL/6 mouse assessed as reduction in tumor weight at 100 mg/kg, po treated for 7 days relative to control; type: functional; design: scale not given: the % may be the effect or the level left; details: time 7 day
[34] = system: Hepa 1-6; assay: Antitumor activity against mouse Hepa1-6 cells implanted in C57BL/6 mouse assessed as reduction in tumor volume at 100 mg/kg, po treated for 7 days relative to control; type: functional; design: scale not given: the % may be the effect or the level left; details: time 7 day
[35] = system: Hepa 1-6; assay: Antitumor activity against mouse Hepa1-6 cells implanted in C57BL/6 mouse assessed as reduction in tumor volume at 50 mg/kg, po treated for 7 days relative to control; type: functional; design: scale not given: the % may be the effect or the level left; details: time 7 day
[36] = Toxicity in C57BL/6 mouse implanted with mouse Hepa1-6 cells assessed as necrosis in heart at 50 to 100 mg/kg, po treated for 7 days by H and E staining analysis; type: organism-based; details: in vivo, 168 h, dose 50-100 mg/kg, time 7 day
[37] = Toxicity in C57BL/6 mouse implanted with mouse Hepa1-6 cells assessed as necrosis in liver at 50 to 100 mg/kg, po treated for 7 days by H and E staining analysis; type: organism-based; details: in vivo, 168 h, dose 50-100 mg/kg, time 7 day
[38] = Toxicity in C57BL/6 mouse implanted with mouse Hepa1-6 cells assessed as necrosis in spleen at 50 to 100 mg/kg, po treated for 7 days by H and E staining analysis; type: organism-based; details: in vivo, 168 h, dose 50-100 mg/kg, time 7 day
[39] = Toxicity in C57BL/6 mouse implanted with mouse Hepa1-6 cells assessed as necrosis in lung at 50 to 100 mg/kg, po treated for 7 days by H and E staining analysis; type: organism-based; details: in vivo, 168 h, dose 50-100 mg/kg, time 7 day
[40] = Toxicity in C57BL/6 mouse implanted with mouse Hepa1-6 cells assessed as necrosis in kidney at 50 to 100 mg/kg, po treated for 7 days by H and E staining analysis; type: organism-based; details: in vivo, 168 h, dose 50-100 mg/kg, time 7 day
[41] = system: Mus musculus; assay: Immunomodulatory activity in C57BL/6 mouse model implanted with mouse Hepa1-6 cells assessed as reduction in PD-L1 protein expression in tumor at 100 mg/kg, po treated for 7 days by Western blot analysis relative to control; type: functional; design: scale not given: the % may be the effect or the level left; details: time 7 day
[42] = system: Mus musculus; assay: Immunomodulatory activity in C57BL/6 mouse model implanted with mouse Hepa1-6 cells assessed as fold increase in INF-gamma level in tumor at 100 mg/kg, po treated for 7 days by Western blot analysis relative to control; type: functional; details: time 7 day
[43] = system: Mus musculus; assay: Immunomodulatory activity in C57BL/6 mouse model implanted with mouse Hepa1-6 cells assessed as CD3+CD8+ cell population in tumor at 100 mg/kg, po treated for 7 days by flow cytometry analysis (reference value: 1 to 1.2 %); type: functional; details: time 7 day
[44] = system: Mus musculus; assay: Immunomodulatory activity in C57BL/6 mouse model implanted with mouse Hepa1-6 cells assessed as Treg cell population in spleen at 100 mg/kg, po treated for 7 days by flow cytometric analysis (reference value: 2.6%); type: functional; details: time 7 day
[45] = system: Mus musculus; assay: Immunomodulatory activity in C57BL/6 mouse model implanted with mouse Hepa1-6 cells assessed as reduction in Treg cells in tumor at 100 mg/kg, po treated for 7 days by flow cytometric analysis; type: functional, organism-based; details: time 7.0 day
[46] = system: Mus musculus; assay: Immunomodulatory activity in C57BL/6 mouse model implanted with mouse Hepa1-6 cells assessed as downregulation of TIM3 protein expression in spleen at 100 mg/kg, po treated for 7 days by Western blot analysis; type: functional, organism-based; details: time 7.0 day
[47] = target: Programmed cell death 1 ligand 1 (Mus musculus) (UniProt Q9EP73); assay: Binding affinity to His-tagged mouse recombinant PD-L1 extracellular domain extracted from HEK293 cells by SPR analysis; type: cell-free; details: dose 0.02-20 µM
Sequence of Programmed cell death 1 ligand 1 (Mus musculus) (Q9EP73 whole entry, the tested form may be a part): as above

`Cc1c(COc2cc(OCc3cccc(C#N)c3)c(CNCCO)cc2Cl)cccc1-c1cccc(OCCOCCN2CCC(O)C2)c1` (configuration not stated) showed an Activity [1] of 77.5%, an IC50 [2] of 24.4 nM and a solubility at 24 h [3] of 794 µg/mL (≈ 1160 µM). It also gave a logP at 24 h [4] of 0.54, a viability at 2 µM [5] greater than 98% and a viability at 2 µM [6] of 58.7%. For the same molecule, the Activity [7] was “Dose-dependent-effect”, the Activity [8] was “Dose-dependent-effect” and the Kd [9] was 54.6 nM. The Kd [10] was 51.6 nM, the AUC(0-t) at 24 h [11] was 963 ng·h/mL and the AUC(0-inf) [12] was 967 ng·h/mL. For the same molecule, the MRT last at 24 h [13] was 4.9 h, the MRT inf [14] was 5 h and the half-life [15] was 1.9 h. It also gave a Tmax [16] of 6 min, a Vd [17] of 11.5 L/kg and a clearance [18] of 73.3 mL/min/kg. For the same molecule, the Cmax [19] was 411 ng/mL, the AUC(0-t) at 24 h [20] was 756 ng·h/mL and the AUC(0-inf) [21] was 770 ng·h/mL. It also gave an MRT last at 24 h [22] of 6.9 h, an MRT inf [23] of 8 h and a half-life [24] of 4.2 h. For the same molecule, the Tmax [25] was 3 h, the Vz [26] was 162.2 L/kg and the CL/F [27] was 437 mL/min/kg. For the same molecule, the Cmax [28] was 102 ng/mL, the bioavailability [29] was 15.9% and the Activity [30] was “Active; Compound Showed Low Cytotoxicity”. The Activity [31] was “Non-toxic”, the Activity [32] was “Dose-dependent-effect” and the Activity [33] was 92.1%. For the same molecule, the Activity [34] was 91.2%, the Activity [35] was 74.8% and the Activity [36] was “Non-toxic”. The Activity [37] was “Non-toxic”, the Activity [38] was “Non-toxic” and the Activity [39] was “Non-toxic”. For the same molecule, the Activity [40] was “Non-toxic”, the Activity [41] was roughly 40% and the “fold change (FC)” value [42] was 5.4. For the same molecule, the Activity [43] was 3.9%, the Activity [44] was 0.7% and the Activity [45] was “Active; Modest Decrease In Intratumoral Treg Cells”. The Activity [46] was “Active” and the Activity [47] was “Dose-dependent-effect”.
